Measured values as given in ChEMBL document CHEMBL3769314, “4(5)-Aryl-2-C-glucopyranosyl-imidazoles as New Nanomolar Glucose Analogue Inhibitors of Glycogen Phosphorylase” (ACS Med Chem Lett, 2015).
Calls of active or inactive are those of the source. The calls are words filed in the database; no cut-off is given here.

Assays:
[1] = biological target: T1, Glycogen phosphorylase, muscle form (Oryctolagus cuniculus, UniProt P00489)
T1 sequence (P00489 whole entry): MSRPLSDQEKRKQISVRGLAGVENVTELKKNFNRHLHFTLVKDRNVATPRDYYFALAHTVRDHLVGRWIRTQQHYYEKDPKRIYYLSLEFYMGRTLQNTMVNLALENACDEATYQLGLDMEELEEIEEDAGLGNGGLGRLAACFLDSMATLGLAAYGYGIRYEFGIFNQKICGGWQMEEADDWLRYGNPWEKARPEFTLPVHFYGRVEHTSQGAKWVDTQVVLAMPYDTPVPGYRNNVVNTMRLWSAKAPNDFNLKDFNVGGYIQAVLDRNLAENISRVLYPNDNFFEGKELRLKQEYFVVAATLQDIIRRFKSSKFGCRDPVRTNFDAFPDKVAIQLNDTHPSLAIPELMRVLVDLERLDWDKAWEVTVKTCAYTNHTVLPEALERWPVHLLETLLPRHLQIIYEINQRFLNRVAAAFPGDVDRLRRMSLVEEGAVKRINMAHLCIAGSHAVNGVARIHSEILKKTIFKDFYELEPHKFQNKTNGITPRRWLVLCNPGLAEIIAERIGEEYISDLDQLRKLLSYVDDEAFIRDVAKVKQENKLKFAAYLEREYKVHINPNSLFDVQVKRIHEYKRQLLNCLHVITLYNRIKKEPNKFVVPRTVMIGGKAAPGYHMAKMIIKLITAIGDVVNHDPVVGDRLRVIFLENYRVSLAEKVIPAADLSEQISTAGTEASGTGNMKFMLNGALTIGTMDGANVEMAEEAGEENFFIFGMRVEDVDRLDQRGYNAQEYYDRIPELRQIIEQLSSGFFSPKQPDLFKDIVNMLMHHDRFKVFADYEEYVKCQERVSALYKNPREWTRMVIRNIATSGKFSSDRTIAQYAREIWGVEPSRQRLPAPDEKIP

[2] = biological target: T1, Glycogen phosphorylase, muscle form; assay: Competitive inhibition of rabbit muscle glycogen phosphorylase-b using alpha-D-glucose-1-phosphate as substrate by Dixon plot analysis
[3] = biological target: T2, Glycogen phosphorylase, muscle form (Oryctolagus cuniculus) (UniProt P00489); assay: Inhibition of rabbit muscle glycogen phosphorylase-b using alpha-D-glucose-1-phosphate as substrate at 625 uM by Dixon plot analysis
T2 sequence (whole entry): T1 sequence (P00489 whole entry)

Structure (SMILES)	Ki [2] [µM]	further results
OC[C@H]1O[C@@H](c2nc3ccccc3s2)[C@H](O)[C@@H](O)[C@@H]1O	–	Ki [1]: 229 µM
OC[C@H]1O[C@@H](c2nc(-c3ccccc3)c[nH]2)[C@H](O)[C@@H](O)[C@@H]1O	0.28	–
OC[C@H]1O[C@@H](c2nc(-c3ccccc3)cs2)[C@H](O)[C@@H](O)[C@@H]1O	310	–
OC[C@H]1O[C@@H](c2cc(-c3ccccc3)n[nH]2)[C@H](O)[C@@H](O)[C@@H]1O	–	Ki [1]: 400 µM
OC[C@H]1O[C@@H](c2nc(-c3ccc4ccccc4c3)c[nH]2)[C@H](O)[C@@H](O)[C@@H]1O	0.031	–
OC[C@H]1O[C@@H](c2nc(-c3ccc4ccccc4c3)cs2)[C@H](O)[C@@H](O)[C@@H]1O	158	–
OC[C@H]1O[C@@H](c2cc(-c3ccccc3)on2)[C@H](O)[C@@H](O)[C@@H]1O	–	inhibition [3]: inactive
